Values quoted from earlier work in patent US12144796B2, “Formulations for treating cluster symptoms associated with autism spectrum disorder” (Ilera Therapeutics LLC, priority 2019, dated 2024).

Question: For `CC12CCC(CC1)C(C)(C)O2` [Eucalyptol, 1,3,3-trimethyl-2-oxabicyclo[2.2.2]octane], which solubility in water is on record?
Answer: Its solubility in water is “insoluble in water”.
